# Literature values as cited in patent US20100260859A1 (ELAN PHARMA INTERNATIONAL LIMITED, priority 2009, published 2010).
smiles,measurement,value
"CN1CCN(C2=Nc3cc(Cl)ccc3Nc3ccccc32)CC1 [Clozapine, 8-chloro-11-(4-methylpiperazin-1-yl)-5H-dibenzo[b,e][1,4]diazepine]",established intrinsic solubility of clozapine in water,0.016 mg/mL
same,solubility in water (in words),very slightly soluble in water
